Experimental data: ChEMBL document CHEMBL5465560, “Selectivity Literature for EUbOPEN Chemogenomic Library” (2024)
Blank lines part the entries; values can stand above or below the molecule they belong to.

Key:
[1] = target: Cyclin-dependent kinase 13 (Homo sapiens, UniProt Q14004); test: Selectivity interaction (ActivX KiNativ screen (kinase selectivity in THP-1 cell lysates)) EUB0000639a CDK13; format: subcellular; conditions: lysate
[2] = target: Mitogen-activated protein kinase 1 (Homo sapiens, UniProt P28482); test: Selectivity interaction (Kinase panel (Z-LYTE Assay)) EUB0001632a MAPK1; conditions: at 10 µM
[3] = target: Histone-lysine N-methyltransferase SUV39H2 (Homo sapiens) (UniProt Q9H5I1); test: Selectivity interaction (Methyltransferase screen (radiometric assays, panel of 8 PRMTs, 21 protein lysine methyltransferases, 3 DNA methyltransferases, and one RNA methyltransferase)) EUB0000271b SUV39H2
[4] = target: Mitogen-activated protein kinase 10 (Homo sapiens, UniProt P53779); test: Selectivity interaction (KinomeScan (DiscoverX)) EUB0000595a MAPK10; conditions: at 10 µM
[5] = target: Serine/threonine-protein kinase tousled-like 2 (Homo sapiens) (UniProt Q86UE8); test: Selectivity interaction (ProQinase) EUB0000171b TLK2
[6] = target: CDK4/Cyclin D3 (Homo sapiens) (UniProt P11802+P30281); test: (§1) Selectivity interaction (KinomeScan (DiscoverX)) EUB0000045b CDK4; format: protein-complex assay
[7] = target: Cyclin-dependent kinase 4/cyclin D1 (Homo sapiens) (UniProt P11802+P24385); test: as §1; format: protein-complex assay
[8] = target: Dual specificity protein kinase CLK1 (Homo sapiens, UniProt P49759); test: Selectivity interaction (KinomeScan (DiscoverX)) EUB0001619a CLK1; conditions: at 1 µM
[9] = target: Ribosomal protein S6 kinase alpha-5 (Homo sapiens) (UniProt O75582); test: Selectivity interaction (ActivX KiNativ screen (ex vivo kinase selectivity in human PBMCs)) EUB0001619a RPS6KA5; format: cell-based; conditions: PBMC, at 1 µM
[10] = target: T1, Serine/threonine-protein kinase BRSK1 (Homo sapiens) (UniProt Q8TDC3); test: Selectivity interaction (KinomeScan (DiscoverX)) EUB0000618a BRSK1; conditions: at 10 µM
T1 sequence (whole entry): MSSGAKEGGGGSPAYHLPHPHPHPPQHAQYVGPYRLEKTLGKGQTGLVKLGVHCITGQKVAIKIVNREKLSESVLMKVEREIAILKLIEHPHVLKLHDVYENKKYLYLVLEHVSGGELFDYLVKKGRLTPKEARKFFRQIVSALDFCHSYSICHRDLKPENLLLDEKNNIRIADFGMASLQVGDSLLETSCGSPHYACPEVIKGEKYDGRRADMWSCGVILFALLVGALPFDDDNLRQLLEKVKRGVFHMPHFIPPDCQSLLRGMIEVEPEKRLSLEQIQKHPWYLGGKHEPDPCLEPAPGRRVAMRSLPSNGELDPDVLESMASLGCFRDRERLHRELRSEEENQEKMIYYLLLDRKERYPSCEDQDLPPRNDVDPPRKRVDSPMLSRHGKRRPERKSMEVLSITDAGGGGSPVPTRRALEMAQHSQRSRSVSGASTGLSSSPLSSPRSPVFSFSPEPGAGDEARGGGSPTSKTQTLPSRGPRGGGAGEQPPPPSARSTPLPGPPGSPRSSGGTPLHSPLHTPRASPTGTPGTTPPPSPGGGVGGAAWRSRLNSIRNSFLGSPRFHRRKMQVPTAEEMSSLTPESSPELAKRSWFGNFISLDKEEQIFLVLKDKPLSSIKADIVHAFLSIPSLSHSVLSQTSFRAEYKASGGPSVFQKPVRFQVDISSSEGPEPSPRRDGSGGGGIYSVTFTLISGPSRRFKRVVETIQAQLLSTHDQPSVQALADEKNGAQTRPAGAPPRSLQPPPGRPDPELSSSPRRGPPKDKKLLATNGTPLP

[11] = target: T2, Serine/threonine-protein kinase BRSK2 (Homo sapiens) (UniProt Q8IWQ3); test: Selectivity interaction (KinomeScan (DiscoverX)) EUB0000618a BRSK2; conditions: at 10 µM
T2 sequence (whole entry): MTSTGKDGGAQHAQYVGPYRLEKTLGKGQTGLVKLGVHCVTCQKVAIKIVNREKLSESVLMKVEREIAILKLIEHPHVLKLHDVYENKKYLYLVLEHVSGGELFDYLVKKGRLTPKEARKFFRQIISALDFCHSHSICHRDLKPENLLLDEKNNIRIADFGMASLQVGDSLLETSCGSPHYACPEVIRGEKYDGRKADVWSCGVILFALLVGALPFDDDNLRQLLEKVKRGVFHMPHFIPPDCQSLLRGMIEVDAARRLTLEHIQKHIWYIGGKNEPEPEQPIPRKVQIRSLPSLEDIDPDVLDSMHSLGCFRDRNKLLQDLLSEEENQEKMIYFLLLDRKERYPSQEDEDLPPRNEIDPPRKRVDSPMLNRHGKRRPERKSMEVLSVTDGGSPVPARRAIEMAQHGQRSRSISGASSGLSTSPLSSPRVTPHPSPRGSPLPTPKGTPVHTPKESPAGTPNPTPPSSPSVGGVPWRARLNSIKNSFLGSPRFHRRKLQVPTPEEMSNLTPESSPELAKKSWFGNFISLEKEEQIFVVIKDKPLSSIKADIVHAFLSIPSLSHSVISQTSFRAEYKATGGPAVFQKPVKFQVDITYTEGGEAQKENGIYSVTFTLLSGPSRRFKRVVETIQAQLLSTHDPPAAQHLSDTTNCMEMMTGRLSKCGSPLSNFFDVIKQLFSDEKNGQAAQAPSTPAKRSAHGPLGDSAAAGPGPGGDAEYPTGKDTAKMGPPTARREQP

Chain of Cyclin-dependent kinase 13 (Q14004 whole entry, looked up): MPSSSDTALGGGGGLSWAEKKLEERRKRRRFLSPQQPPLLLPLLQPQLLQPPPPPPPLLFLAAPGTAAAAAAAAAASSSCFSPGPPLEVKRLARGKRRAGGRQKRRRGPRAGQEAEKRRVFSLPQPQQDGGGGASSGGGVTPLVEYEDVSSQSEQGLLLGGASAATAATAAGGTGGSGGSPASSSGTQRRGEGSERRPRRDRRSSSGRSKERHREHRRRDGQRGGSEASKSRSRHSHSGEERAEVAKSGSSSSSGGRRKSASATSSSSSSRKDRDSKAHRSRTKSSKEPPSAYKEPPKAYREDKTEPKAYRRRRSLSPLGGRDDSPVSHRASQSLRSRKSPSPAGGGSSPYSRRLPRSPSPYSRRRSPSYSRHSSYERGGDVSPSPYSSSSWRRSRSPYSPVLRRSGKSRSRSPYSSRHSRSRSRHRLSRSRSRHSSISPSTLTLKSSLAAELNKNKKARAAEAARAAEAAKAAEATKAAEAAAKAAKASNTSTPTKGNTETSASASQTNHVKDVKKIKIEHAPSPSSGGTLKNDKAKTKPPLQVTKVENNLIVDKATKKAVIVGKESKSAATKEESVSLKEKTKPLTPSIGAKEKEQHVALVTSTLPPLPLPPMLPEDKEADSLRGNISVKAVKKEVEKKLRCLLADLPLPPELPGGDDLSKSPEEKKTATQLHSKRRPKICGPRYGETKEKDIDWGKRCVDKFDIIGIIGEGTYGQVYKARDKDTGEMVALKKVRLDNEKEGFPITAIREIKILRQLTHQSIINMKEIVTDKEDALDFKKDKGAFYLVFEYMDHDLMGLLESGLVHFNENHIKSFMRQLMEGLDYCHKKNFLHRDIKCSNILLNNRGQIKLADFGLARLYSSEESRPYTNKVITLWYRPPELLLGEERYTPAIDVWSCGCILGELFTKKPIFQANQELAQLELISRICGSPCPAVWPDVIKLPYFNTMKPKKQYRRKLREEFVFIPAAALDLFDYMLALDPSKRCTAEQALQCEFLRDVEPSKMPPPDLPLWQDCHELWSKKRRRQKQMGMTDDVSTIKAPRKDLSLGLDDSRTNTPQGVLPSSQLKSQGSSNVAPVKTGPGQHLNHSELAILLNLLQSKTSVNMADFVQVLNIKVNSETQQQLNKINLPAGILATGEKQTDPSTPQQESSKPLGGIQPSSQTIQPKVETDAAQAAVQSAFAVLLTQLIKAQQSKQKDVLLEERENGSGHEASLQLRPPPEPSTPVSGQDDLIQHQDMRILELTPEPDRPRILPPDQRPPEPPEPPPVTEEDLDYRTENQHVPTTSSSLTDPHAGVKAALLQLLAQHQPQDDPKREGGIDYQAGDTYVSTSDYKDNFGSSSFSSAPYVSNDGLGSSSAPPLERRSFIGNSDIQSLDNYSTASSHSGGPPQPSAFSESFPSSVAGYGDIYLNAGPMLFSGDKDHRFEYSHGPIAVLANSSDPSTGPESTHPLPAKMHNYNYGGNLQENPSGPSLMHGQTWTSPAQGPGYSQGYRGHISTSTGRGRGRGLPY
Chain of Histone-lysine N-methyltransferase SUV39H2 (Homo sapiens) (Q9H5I1 whole entry): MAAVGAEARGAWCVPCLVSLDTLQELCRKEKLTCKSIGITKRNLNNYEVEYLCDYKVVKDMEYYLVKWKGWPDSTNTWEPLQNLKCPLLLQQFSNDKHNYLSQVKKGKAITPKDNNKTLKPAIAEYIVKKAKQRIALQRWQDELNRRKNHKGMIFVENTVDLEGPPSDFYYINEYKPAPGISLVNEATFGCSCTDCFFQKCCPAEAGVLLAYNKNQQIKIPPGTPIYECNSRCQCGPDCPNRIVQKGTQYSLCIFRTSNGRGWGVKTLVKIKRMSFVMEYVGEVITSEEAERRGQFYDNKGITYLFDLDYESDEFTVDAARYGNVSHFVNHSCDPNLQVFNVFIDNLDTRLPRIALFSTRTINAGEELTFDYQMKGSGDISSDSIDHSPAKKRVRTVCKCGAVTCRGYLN
Chain of Serine/threonine-protein kinase tousled-like 2 (Homo sapiens) (Q86UE8 whole entry, looked up): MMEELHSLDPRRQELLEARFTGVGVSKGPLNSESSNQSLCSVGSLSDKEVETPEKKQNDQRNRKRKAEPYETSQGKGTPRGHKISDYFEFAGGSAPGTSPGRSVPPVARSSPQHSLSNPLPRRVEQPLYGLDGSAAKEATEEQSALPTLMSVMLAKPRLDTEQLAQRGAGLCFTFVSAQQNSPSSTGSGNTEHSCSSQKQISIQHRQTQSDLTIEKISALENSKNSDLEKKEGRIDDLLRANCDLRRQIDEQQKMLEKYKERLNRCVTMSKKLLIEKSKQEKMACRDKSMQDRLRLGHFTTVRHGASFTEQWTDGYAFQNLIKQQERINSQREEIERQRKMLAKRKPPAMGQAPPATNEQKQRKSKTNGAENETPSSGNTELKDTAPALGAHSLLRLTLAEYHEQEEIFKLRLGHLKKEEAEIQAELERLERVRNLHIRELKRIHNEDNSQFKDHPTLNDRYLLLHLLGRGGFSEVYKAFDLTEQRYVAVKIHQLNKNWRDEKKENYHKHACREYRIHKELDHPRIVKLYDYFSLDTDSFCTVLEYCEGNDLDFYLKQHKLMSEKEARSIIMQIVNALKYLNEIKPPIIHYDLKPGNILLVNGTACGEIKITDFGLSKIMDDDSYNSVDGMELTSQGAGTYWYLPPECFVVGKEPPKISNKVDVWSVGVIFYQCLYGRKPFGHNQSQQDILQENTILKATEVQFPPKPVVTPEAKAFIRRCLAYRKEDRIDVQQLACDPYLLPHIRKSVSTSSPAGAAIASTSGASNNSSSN
Chain of Ribosomal protein S6 kinase alpha-5 (Homo sapiens) (O75582 whole entry, looked up): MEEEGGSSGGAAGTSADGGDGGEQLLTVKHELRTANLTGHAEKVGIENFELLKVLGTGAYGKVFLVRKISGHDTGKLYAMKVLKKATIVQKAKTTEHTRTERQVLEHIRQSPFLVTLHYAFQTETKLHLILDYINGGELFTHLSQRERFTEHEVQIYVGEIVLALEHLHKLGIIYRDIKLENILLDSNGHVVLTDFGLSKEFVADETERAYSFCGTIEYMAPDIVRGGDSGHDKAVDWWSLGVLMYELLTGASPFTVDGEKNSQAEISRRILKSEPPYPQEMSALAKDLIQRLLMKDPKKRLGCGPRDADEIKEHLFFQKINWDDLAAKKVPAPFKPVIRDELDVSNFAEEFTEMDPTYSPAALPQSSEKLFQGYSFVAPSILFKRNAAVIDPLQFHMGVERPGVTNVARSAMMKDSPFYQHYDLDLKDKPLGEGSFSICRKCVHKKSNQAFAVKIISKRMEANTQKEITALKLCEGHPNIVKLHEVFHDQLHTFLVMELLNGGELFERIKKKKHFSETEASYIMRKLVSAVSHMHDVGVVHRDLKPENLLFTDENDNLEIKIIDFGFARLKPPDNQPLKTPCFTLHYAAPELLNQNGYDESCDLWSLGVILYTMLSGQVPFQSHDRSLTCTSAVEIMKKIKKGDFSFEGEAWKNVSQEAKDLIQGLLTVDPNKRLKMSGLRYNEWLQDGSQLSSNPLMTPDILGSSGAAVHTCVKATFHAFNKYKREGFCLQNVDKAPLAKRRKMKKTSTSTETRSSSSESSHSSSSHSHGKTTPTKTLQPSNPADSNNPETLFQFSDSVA
Chain of Dual specificity protein kinase CLK1 (P49759 whole entry, looked up): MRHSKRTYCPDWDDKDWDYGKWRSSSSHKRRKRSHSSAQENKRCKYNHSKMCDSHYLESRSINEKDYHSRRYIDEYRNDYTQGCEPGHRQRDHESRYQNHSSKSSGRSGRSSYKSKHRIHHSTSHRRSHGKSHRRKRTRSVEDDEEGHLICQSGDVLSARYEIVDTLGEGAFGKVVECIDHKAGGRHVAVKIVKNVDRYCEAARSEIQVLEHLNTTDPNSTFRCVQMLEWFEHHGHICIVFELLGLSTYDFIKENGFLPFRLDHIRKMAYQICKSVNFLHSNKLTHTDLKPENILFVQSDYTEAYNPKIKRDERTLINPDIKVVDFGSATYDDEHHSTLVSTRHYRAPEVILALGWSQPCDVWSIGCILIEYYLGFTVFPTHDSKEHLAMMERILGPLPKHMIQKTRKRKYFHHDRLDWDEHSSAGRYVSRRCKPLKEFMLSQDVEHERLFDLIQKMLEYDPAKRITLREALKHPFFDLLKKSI
Chain of Mitogen-activated protein kinase 1 (P28482 whole entry): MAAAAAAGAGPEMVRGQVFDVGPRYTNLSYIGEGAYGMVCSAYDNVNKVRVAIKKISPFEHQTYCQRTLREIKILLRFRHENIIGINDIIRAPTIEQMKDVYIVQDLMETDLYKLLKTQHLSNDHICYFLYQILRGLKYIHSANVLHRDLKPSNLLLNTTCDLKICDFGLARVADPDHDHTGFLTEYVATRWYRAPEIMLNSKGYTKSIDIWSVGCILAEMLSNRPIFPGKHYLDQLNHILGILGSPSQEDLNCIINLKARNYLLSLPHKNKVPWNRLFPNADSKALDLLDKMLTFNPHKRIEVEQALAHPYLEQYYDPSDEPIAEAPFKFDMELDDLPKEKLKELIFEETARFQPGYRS
Chain of Mitogen-activated protein kinase 10 (P53779 whole entry): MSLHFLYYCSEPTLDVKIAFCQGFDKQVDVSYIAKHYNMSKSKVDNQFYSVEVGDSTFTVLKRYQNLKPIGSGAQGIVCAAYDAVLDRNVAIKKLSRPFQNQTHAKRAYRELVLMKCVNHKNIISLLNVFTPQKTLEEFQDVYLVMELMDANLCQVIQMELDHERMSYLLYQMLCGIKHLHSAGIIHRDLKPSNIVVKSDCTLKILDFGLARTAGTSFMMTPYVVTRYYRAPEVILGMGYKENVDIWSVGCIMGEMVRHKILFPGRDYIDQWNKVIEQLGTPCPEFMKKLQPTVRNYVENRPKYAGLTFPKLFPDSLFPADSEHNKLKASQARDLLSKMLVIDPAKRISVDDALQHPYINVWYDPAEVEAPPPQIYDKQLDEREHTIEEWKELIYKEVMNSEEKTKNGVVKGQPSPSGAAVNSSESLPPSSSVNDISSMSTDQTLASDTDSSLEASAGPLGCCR

% of inhibition ([1]; at 0.01 µM): 3.8%
% of inhibition ([1]; at 0.04 µM): -10.7%
% of inhibition ([1]; at 0.2 µM): -1.5%
% of inhibition ([1]; at 1 µM): -2.6%
% of inhibition ([1]; at 5 µM): 5.1%
Structure (SMILES): CC[C@@H]1[C@H](F)C(=O)N[C@@H]1COc1nccc2cc(C(N)=O)c(OC)cc12 [ZIMLOVISERTIB]

% of control [2]: -3.31%
Structure (SMILES): Cn1cc(-n2cnc3c(NCc4nc5cc(Cl)c(Cl)cc5[nH]4)nc(N4CCOCC4)nc32)cn1

Structure (SMILES): Cc1cc(C)cc([C@@H]2c3cc(C)ccc3NC(=O)CN2C(=O)c2ccc(Br)s2)c1
% of activity ([3]; at 1 µM): 99.3%
% of activity ([3]; at 10 µM): 98.3%

Structure (SMILES): COCC(=O)NC/C=C/c1ccc2ncnc(Nc3ccc(Oc4ccc(C)nc4)c(C)c3)c2c1 [CP-724714]
% of control [4]: 68%

% of control ([5]; at 1 µM): 92%
% of control ([5]; at 5 µM): 83%
Structure (SMILES): C=CC(=O)Nc1cccc(C(=O)Nc2ccc(Nc3cc(-c4[nH]c(SC)nc4C)ccn3)cc2)c1

Structure (SMILES): C=CC(=O)Nc1cc(-n2c(=O)ccc3cnc4ccc(-c5ccc(NS(C)(=O)=O)cc5)cc4c32)ccc1C
% of control ([6]; at 1 µM): 100%
% of control ([6]; at 10 µM): 93%
% of control ([7]; at 1 µM): 100%
% of control ([7]; at 10 µM): 100%

Structure (SMILES): N#Cc1cccc(-c2c[nH]c3ncnc(N4CCOCC4)c23)c1
% of control [8]: 63%
% of inhibition [9]: -4%

Structure (SMILES): O[C@H]1CC[C@H](Nc2ncc3nc(Nc4c(F)cc(F)cc4F)n([C@H]4CCOC4)c3n2)CC1
% of control [10]: 86%
% of control [11]: 99%
